Assay results as given in ChEMBL document CHEMBL5608246, “Membrane-Targeting Amphiphilic Honokiol Derivatives Containing an Oxazole Moiety as Potential Antibacterials against Methicillin-Resistant Staphylococcus aureus” (J Med Chem, 2024).
≈ marks a conversion by molar mass, not a printed value.

Experiments:
Staphylococcus aureus [1] = experiment: Antibacterial activity against Staphylococcus aureus ATCC 29213 incubated for 16 to 18 hrs by broth dilution method; assay type: functional; conditions: time 16-18 hrs
Staphylococcus aureus [2] = experiment: Antibacterial activity against methicillin resistant Staphylococcus aureus N315 incubated for 16 to 18 hrs by broth dilution method; assay type: functional; conditions: time 16-18 hrs
Staphylococcus aureus [3] = experiment: Antibacterial activity against methicillin resistant Staphylococcus aureus M11 incubated for 16 to 18 hrs by broth dilution method; assay type: functional; conditions: time 16-18 hrs
Staphylococcus aureus [4] = experiment: Antibacterial activity against methicillin resistant Staphylococcus aureus M12 incubated for 16 to 18 hrs by broth dilution method; assay type: functional; conditions: time 16-18 hrs
Staphylococcus aureus [5] = experiment: Antibacterial activity against methicillin resistant Staphylococcus aureus M13 incubated for 16 to 18 hrs by broth dilution method; assay type: functional; conditions: time 16-18 hrs
Staphylococcus aureus [6] = experiment: Antibacterial activity against methicillin resistant Staphylococcus aureus M14 incubated for 16 to 18 hrs by broth dilution method; assay type: functional; conditions: time 16-18 hrs
Staphylococcus aureus [7] = experiment: Antibacterial activity against methicillin resistant Staphylococcus aureus M16 incubated for 16 to 18 hrs by broth dilution method; assay type: functional; conditions: time 16-18 hrs
Staphylococcus aureus [8] = experiment: Antibacterial activity against methicillin resistant Staphylococcus aureus M17 incubated for 16 to 18 hrs by broth dilution method; assay type: functional; conditions: time 16-18 hrs
Staphylococcus aureus [9] = experiment: Antibacterial activity against methicillin resistant Staphylococcus aureus M20 incubated for 16 to 18 hrs by broth dilution method; assay type: functional; conditions: time 16-18 hrs
Staphylococcus aureus [10] = experiment: Antibacterial activity against methicillin resistant Staphylococcus aureus M21 incubated for 16 to 18 hrs by broth dilution method; assay type: functional; conditions: time 16-18 hrs
Staphylococcus aureus [11] = experiment: Antibacterial activity against methicillin resistant Staphylococcus aureus M22 incubated for 16 to 18 hrs by broth dilution method; assay type: functional; conditions: time 16-18 hrs
Staphylococcus aureus [12] = experiment: Antibacterial activity against methicillin resistant Staphylococcus aureus M23 incubated for 16 to 18 hrs by broth dilution method; assay type: functional; conditions: time 16-18 hrs
Escherichia coli = experiment: Antibacterial activity against Escherichia coli ATCC 25922 incubated for 16 to 18 hrs by broth dilution method; assay type: functional; conditions: time 16-18 hrs
[13] = Hemolytic activity in sheep RBC incubated for 1 hr; assay type: toxicity, cell-based, Ovis aries, Erythrocyte; conditions: sheep red blood cells (erythrocytes)
[14] = Selectivity index, ratio of HC50 for sheep RBC to MIC for Staphylococcus aureus ATCC 29213; assay type: toxicity; conditions: sheep red blood cells, read-out: Selectivity Index
Staphylococcus aureus [15] = experiment: Antibacterial activity against Staphylococcus aureus ATCC 29213 assessed as resistance development by measuring fold increase in MIC after 20 passages incubated for 16 to 18 hrs; assay type: functional; conditions: time 16-18 hrs

## C=CCc1cc(-c2ccc(OCCC[N+](C)(C)CC(=O)NCCCC)c(CC=C)c2)c2oc(-c3ccc(Cl)c(Br)c3)nc2c1.[Br-]
Staphylococcus aureus [1]
  MIC: 128 µg/mL
Staphylococcus aureus [2]
  MIC: 128 µg/mL
Staphylococcus aureus [3]
  MIC: > 128 µg/mL
Staphylococcus aureus [4]
  MIC: 128 µg/mL
Staphylococcus aureus [5]
  MIC: 32 µg/mL
Staphylococcus aureus [6]
  MIC: 64 µg/mL
Staphylococcus aureus [7]
  MIC: 64 µg/mL
Staphylococcus aureus [8]
  MIC: 128 µg/mL
Staphylococcus aureus [9]
  MIC: 128 µg/mL
Staphylococcus aureus [10]
  MIC: 128 µg/mL
Staphylococcus aureus [11]
  MIC: 128 µg/mL
Staphylococcus aureus [12]
  MIC: 128 µg/mL
Escherichia coli
  MIC: > 128 µg/mL
[13]
  HC50 at 1 h: > 320 µg/mL
[14]
  selectivity ratio: > 2.5

## C=CCc1cc(-c2ccc(OCCC[N+](C)(C)CC(=O)NCCCC)c(CC=C)c2)c2oc(-c3ccc(Cl)cc3)nc2c1.[Br-]
Staphylococcus aureus [1]
  MIC: 16 µg/mL
Staphylococcus aureus [2]
  MIC: 8 µg/mL
Staphylococcus aureus [3]
  MIC: 4 µg/mL
Staphylococcus aureus [4]
  MIC: 4 µg/mL
Staphylococcus aureus [5]
  MIC: 4 µg/mL
Staphylococcus aureus [6]
  MIC: 8 µg/mL
Staphylococcus aureus [7]
  MIC: 4 µg/mL
Staphylococcus aureus [8]
  MIC: 4 µg/mL
Staphylococcus aureus [9]
  MIC: 8 µg/mL
Staphylococcus aureus [10]
  MIC: 4 µg/mL
Staphylococcus aureus [11]
  MIC: 8 µg/mL
Staphylococcus aureus [12]
  MIC: 4 µg/mL
Escherichia coli
  MIC: > 128 µg/mL
[13]
  HC50 at 1 h: > 640 µg/mL
[14]
  selectivity ratio: > 40

## CCn1cc(C(=O)O)c(=O)c2cc(F)c(N3CCNCC3)cc21 [NORFLOXACIN]
Staphylococcus aureus [15]
  fold change (FC): 128

## C=CCc1cc(-c2ccc(OCCC[N+](C)(C)CC(=O)NCCCC)c(CC=C)c2)c2oc(-c3ccccc3Br)nc2c1.[Br-]
Staphylococcus aureus [1]
  MIC: 4 µg/mL
Staphylococcus aureus [2]
  MIC: 8 µg/mL
Staphylococcus aureus [3]
  MIC: 4 µg/mL
Staphylococcus aureus [4]
  MIC: 4 µg/mL
Staphylococcus aureus [5]
  MIC: 2 µg/mL
Staphylococcus aureus [6]
  MIC: 4 µg/mL
Staphylococcus aureus [7]
  MIC: 2 µg/mL
Staphylococcus aureus [8]
  MIC: 4 µg/mL
Staphylococcus aureus [9]
  MIC: 4 µg/mL
Staphylococcus aureus [10]
  MIC: 4 µg/mL
Staphylococcus aureus [11]
  MIC: 4 µg/mL
Staphylococcus aureus [12]
  MIC: 4 µg/mL
Escherichia coli
  MIC: 128 µg/mL
[13]
  HC50 at 1 h: > 320 µg/mL
[14]
  selectivity ratio: > 80

## C=CCc1cc(-c2ccc(OCCC[N+](C)(C)CC(=O)NCCCC)c(CC=C)c2)c2oc(-c3ccc(F)c(Br)c3)nc2c1.[Br-]
Staphylococcus aureus [1]
  MIC: 128 µg/mL
Staphylococcus aureus [2]
  MIC: 128 µg/mL
Staphylococcus aureus [3]
  MIC: 8 µg/mL
Staphylococcus aureus [4]
  MIC: 16 µg/mL
Staphylococcus aureus [5]
  MIC: 8 µg/mL
Staphylococcus aureus [6]
  MIC: 8 µg/mL
Staphylococcus aureus [7]
  MIC: 16 µg/mL
Staphylococcus aureus [8]
  MIC: 16 µg/mL
Staphylococcus aureus [9]
  MIC: 8 µg/mL
Staphylococcus aureus [10]
  MIC: 8 µg/mL
Staphylococcus aureus [11]
  MIC: 32 µg/mL
Staphylococcus aureus [12]
  MIC: 16 µg/mL
Escherichia coli
  MIC: 128 µg/mL
[13]
  HC50 at 1 h: 48.5 µg/mL
[14]
  selectivity ratio: 0.4

## C=CCc1ccc(O)c(-c2ccc(O)c(CC=C)c2)c1 [HONOKIOL]
Staphylococcus aureus [1]
  MIC: 64 µg/mL (≈ 240 µM)
Staphylococcus aureus [2]
  MIC: 8 µg/mL (≈ 30 µM)
Staphylococcus aureus [3]
  MIC: 16 µg/mL (≈ 60.1 µM)
Staphylococcus aureus [4]
  MIC: 8 µg/mL (≈ 30 µM)
Staphylococcus aureus [5]
  MIC: 16 µg/mL (≈ 60.1 µM)
Staphylococcus aureus [6]
  MIC: 16 µg/mL (≈ 60.1 µM)
Staphylococcus aureus [7]
  MIC: 16 µg/mL (≈ 60.1 µM)
Staphylococcus aureus [8]
  MIC: 16 µg/mL (≈ 60.1 µM)
Staphylococcus aureus [9]
  MIC: 8 µg/mL (≈ 30 µM)
Staphylococcus aureus [10]
  MIC: 16 µg/mL (≈ 60.1 µM)
Staphylococcus aureus [11]
  MIC: 16 µg/mL (≈ 60.1 µM)
Staphylococcus aureus [12]
  MIC: 16 µg/mL (≈ 60.1 µM)
Escherichia coli
  MIC: > 128 µg/mL
[13]
  HC50 at 1 h: > 80 µg/mL
[14]
  selectivity ratio: > 1.25

## C=CCc1cc(-c2ccc(OCCC[N+](C)(C)CC(=O)NCCCC)c(CC=C)c2)c2oc(-c3cccc(OC)c3)nc2c1.[Br-]
Staphylococcus aureus [1]
  MIC: 32 µg/mL
Staphylococcus aureus [2]
  MIC: 8 µg/mL
Staphylococcus aureus [3]
  MIC: 8 µg/mL
Staphylococcus aureus [4]
  MIC: 16 µg/mL
Staphylococcus aureus [5]
  MIC: 16 µg/mL
Staphylococcus aureus [6]
  MIC: 8 µg/mL
Staphylococcus aureus [7]
  MIC: 8 µg/mL
Staphylococcus aureus [8]
  MIC: 8 µg/mL
Staphylococcus aureus [9]
  MIC: 8 µg/mL
Staphylococcus aureus [10]
  MIC: 8 µg/mL
Staphylococcus aureus [11]
  MIC: 16 µg/mL
Staphylococcus aureus [12]
  MIC: 8 µg/mL
Escherichia coli
  MIC: > 128 µg/mL
[13]
  HC50 at 1 h: 307 µg/mL
[14]
  selectivity ratio: 9.6

## C=CCc1cc(-c2ccc(OCCC[N+](C)(C)CC(=O)NCCCC)c(CC=C)c2)c2oc(-c3ccccc3)nc2c1.[Br-]
Staphylococcus aureus [1]
  MIC: 8 µg/mL
Staphylococcus aureus [2]
  MIC: 16 µg/mL
Staphylococcus aureus [3]
  MIC: 2 µg/mL
Staphylococcus aureus [4]
  MIC: 2 µg/mL
Staphylococcus aureus [5]
  MIC: 2 µg/mL
Staphylococcus aureus [6]
  MIC: 4 µg/mL
Staphylococcus aureus [7]
  MIC: 4 µg/mL
Staphylococcus aureus [8]
  MIC: 1 µg/mL
Staphylococcus aureus [9]
  MIC: 2 µg/mL
Staphylococcus aureus [10]
  MIC: 2 µg/mL
Staphylococcus aureus [11]
  MIC: 2 µg/mL
Staphylococcus aureus [12]
  MIC: 2 µg/mL
Escherichia coli
  MIC: > 128 µg/mL
[13]
  HC50 at 1 h: > 160 µg/mL
[14]
  selectivity ratio: > 20
